We go through nine compounds from patent US10202353B2, “Therapeutic compounds” (Gilead Sciences, Inc., priority 2014, dated 2019).

The nature of series [1]: Test B: Cytotoxicity Assay. The format is cell-based. Particulars: human, uninfected MT4 cells, same protocol as Test A. Here is the method:
(§1) For the antiviral assay, 40 μL of a concentration required to achieve a final effective 1× test concentration of 3-fold serially diluted compound in culture medium with 10% FBS was added to each well of a 384-well plate (10 concentrations) in quadruplicate. MT4 cells were next mixed with HIV-IIIb at an m.o.i of 0.003 for 1 hour, after which time 35 μL of virus/cell mixture (2000 cells) was immediately added to each well containing 40 μL of diluted compound. The plates were then incubated at 37° C. for 5 days. After 5 days of incubation, 25 μl of 2× concentrated CellTiter-Glo™ Reagent (catalog # G7571, Promega Biosciences, Inc., Madison, Wis.) was added to each well containing MT-4 cells. Cell lysis was carried out by incubating at room temperature for 10 min and then chemiluminescence was read. EC50 values were calculated as the compound concentration that caused a 50% decrease in luminescence signal, a measure of HIV-1 replication. Percent inhibition of virus-induced cell killing calculated from the dose response curve at 2 μM drug concentration is shown in the table below. Compound cytotoxicity and the corresponding CC50 values was determined using the same protocol as described in the antiviral assay (Test A) except that uninfected cells were used.

The subject of series [2] is HIV-IIIb. The series can be described thus: Test A: Antiviral assay in MT4 Cells. The format is cell-based, HIV-1. Particulars: Human immunodeficiency virus 1, 120 h; 2 μM drug concentration; MT4 cells infected with HIV-IIIb, 5 days; calculated from dose response curve; values normalized to 100% where greater than 100; read-out: % Inhibition at 2 μM (percent inhibition of virus-induced cell killing). Here is the method:
as §1, with “below.” for “below. Compound cytotoxicity and the corresponding CC50 values was determined using the same protocol as described in the antiviral assay (Test A) except that uninfected cells were used.”

A value given as a limit tells only on which side of the number the result lay.

As to `COc1ccc(N(C)C(=O)[C@H](Cc2cc(F)cc(F)c2)NC(=O)Cn2nc(C(F)(F)F)c3c2C(C)CCC3)cc1` (stereo partly drawn) [Compound 26, (2S)-3-(3,5-difluorophenyl)-N-(4-methoxyphenyl)-N-methyl-2-(2-(7-methyl-3-(trifluoromethyl)-4,5,6,7-tetrahydro-1H-indazol-1-yl)acetamido)propanamide], it took 9.82 µM to reach half-maximal cytotoxicity in series [1] (CC50 at 5 days). In series [2], the inhibition at 2 µM was 100%.
The matching figures for `COc1ccc(N(C)C(=O)[C@H](Cc2cc(F)cc(F)c2)NC(=O)Cn2nc(C(F)(F)F)c3c2CCC2(C3)OCCO2)cc1` [Compound 27]: 19.9 µM and 32%.
The matching figures for `COc1ccc(N(C)C(=O)[C@H](Cc2cc(F)cc(F)c2)NC(=O)Cn2nc(C(F)(F)F)c3c2CCC(=O)C3)cc1` [Compound 28, (S)-3-(3,5-difluorophenyl)-N-(4-methoxyphenyl)-N-methyl-2-(2-(5-oxo-3-(trifluoromethyl)-4,5,6,7-tetrahydro-1H-indazol-1-yl)acetamido)propanamide]: 37.2 µM and 76%.
`COc1ccc(N(C)C(=O)[C@H](Cc2cc(F)cc(F)c2)NC(=O)Cn2nc(C(F)(F)F)c3c2CCC(C)(O)C3)cc1` (stereo partly drawn) [Compound 29, (2S)-3-(3,5-difluorophenyl)-2-(2-(5-hydroxy-5-methyl-3-(trifluoromethyl)-4,5,6,7-tetrahydro-1H-indazol-1-yl)acetamido)-N-(4-methoxyphenyl)-N-methylpropanamide] showed a half-maximal cytotoxic concentration (CC50) at 5 days in series [1] of 32.1 µM. Moreover, the inhibition at 2 µM in series [2] was 82%.
The corresponding values for `CN(C(=O)[C@H](Cc1cc(F)cc(F)c1)NC(=O)Cn1[nH]c(=O)c2c1CCCC2)c1ccc(Cl)cc1` [Compound 30] are 22.2 µM and 100%.
The matching figures for `COc1ccc(N(C)C(=O)[C@H](Cc2cc(F)cc(F)c2)NC(=O)Cn2ncc3c2CCCC3)cc1` [Compound 31, (S)-3-(3,5-difluorophenyl)-N-(4-methoxyphenyl)-N-methyl-2-(2-(4,5,6,7-tetrahydro-1H-indazol-1-yl)acetamido)propanamide]: more than 53 µM and 78%.
The matching figures for `CN(C(=O)[C@H](Cc1cc(F)cc(F)c1)NC(=O)Cn1c(N)nc2c1c(=O)[nH]c(=O)n2C)c1ccc(Cl)cc1` [Compound 32, (S)-2-(2-(8-amino-3-methyl-2,6-dioxo-2,3-dihydro-1H-purin-7(6)-yl)acetamido)-N-(4-chlorophenyl)-3-(3,5-difluorophenyl)-N-methylpropanamide]: more than 53 µM and 39%.
Take `CN(C(=O)[C@H](Cc1cc(F)cc(F)c1)NC(=O)Cc1cc(F)cc2c1OCOC2)c1ccc(Cl)cc1` [Compound 33, (S)—N-(4-chlorophenyl)-3-(3,5-difluorophenyl)-2-(2-(6-fluoro-4H-benzo[d][1,3]dioxin-8-yl)acetamido)-N-methylpropanamide]: half-maximal cytotoxicity in series [1] (CC50 at 5 days) was put at 18.4 µM. For the same compound, the inhibition at 2 µM in series [2] was 34%.
The corresponding values for `CN(C(=O)[C@H](Cc1cc(F)cc(F)c1)NC(=O)Cn1nc(C(F)(F)F)c2c1C(F)(F)C1CC21)c1ccc2c(c1)CNC2=O` (stereo partly drawn) [Compound 34, (2S)-2-(2-(5,5-difluoro-3-(trifluoromethyl)-3b,4,4a,5-tetrahydro-1H-cyclopropa[3,4]cyclopenta[1,2-c]pyrazol-1-yl)acetamido)-3-(3,5-difluorophenyl)-N-methyl-N-(1-oxoisoindolin-5-yl)propanamide] are more than 53 µM and 97%.
